Source: PMC12113356, “Novel Anti-MRSA Peptide from Mangrove-Derived Virgibacillus chiguensis FN33 Supported by Genomics and Molecular Dynamics” (Marine Drugs, 2025)
≈ marks a conversion by molar mass, not a printed value. Read-outs that look alike come from different tables or passages of the source.

Experiments:
[1] = DPPH radical-scavenging assay; conditions: 0.1 mM DPPH, 25 °C, 30 min in darkness, absorbance 517 nm; mean ± SD, n = 3
Procedure: A 200 μL sample or ascorbic acid (Gammaco Ltd., Bangkok, Thailand) was added to 2 mL of 0.1 mM DPPH solution (Merck Ltd., Bangkok, Thailand) and incubated at 25 °C in darkness for 30 min. The DPPH color change from purple to pale yellow was observed, and the absorbance at 517 nm was measured using a UV–visible spectrophotometer.

MRSA strain 2468 [2] = assay: Compatibility with surfactants (activity retention by agar well diffusion); type: physicochemical, Staphylococcus aureus; conditions: surfactant 1% w/v alone, no AMP, agar well diffusion, % of untreated FN33 AMP sample, mean ± SD, n = 3
Procedure: The AMP solution was prepared in sterile purified water and adjusted to a final concentration of 32 µg/mL. To determine thermal stability, the AMP was exposed to temperatures of 30, 40, 60, 80, and 100 °C, as well as to autoclaving at 121 °C and 15 psi for 15 and 30 min. The susceptibility of the AMP to enzymatic degradation was examined by treating it with proteinase K, trypsin, and α-chymotrypsin (each at 1 mg/mL, Sigma-Aldrich, Warren, MI, USA), representing different proteolytic mechanisms. The AMP’s compatibility with surfactants was assessed by incubating it with 1% SDS, 1% CTAB, and 1% Triton X-100 (AppliChem GmbH, Darmstadt, Germany). Additionally, the effect of pH variations on AMP integrity was tested by adjusting the solution to pH 1, 4, 8, 10, and 14. The pH was neutralized to the original pH after incubation before conducting antibacterial activity tests. […] Stability data were expressed as residual activity percentages relative to the untreated sample (mean ± SD), and statistical significance was evaluated using two-way ANOVA and Tukey’s post hoc test, with a p-value < 0.05 considered significant.

MRSA strain 1096 [3] = assay: Broth microdilution MIC/MBC (CLSI); type: cell-based; conditions: Staphylococcus aureus
Procedure: (§1) The broth microdilution method was performed following the guidelines of the Clinical and Laboratory Standards Institute (CLSI). Test strains including S. aureus TISTR 517 and MRSA strains 142, 1096, and 2468 were cultured on MH agar at 37 °C for 18 h. A single colony from each strain was suspended in 0.85% NaCl until it reached a turbidity of 0.1 OD at 625 nm (1 × 10^8 CFU/mL). The bacterial cells were then diluted to 5 × 10^6 CFU/mL using cation-adjusted Mueller–Hinton broth (CAMHB). Ten microliters of the cell suspension were added to each well of a 96-well plate to make the total volume in each well 100 µL. The AMP was added to achieve final concentrations ranging from 0.125 to 64 µg/mL. Vancomycin and cefoxitin were used as positive controls, while antibiotic-free samples were used as negative controls. The plate was incubated at 37 °C for 24 h. Each experiment was performed in triplicate. The MIC was determined as the lowest concentration that inhibited visible bacterial growth. For the MBC, 100 µL from each dilution was spread on MH agar and incubated at 37 °C for 24 h. The MBC was the lowest concentration at which no bacterial colonies appeared on the agar plates.

MRSA strain 142 [4] = assay: Broth microdilution MIC/MBC (CLSI); type: cell-based; conditions: Staphylococcus aureus
Procedure: as §1

MRSA strain 2468 [5] = assay: Broth microdilution MIC/MBC (CLSI); type: cell-based; conditions: Staphylococcus aureus
Procedure: as §1

MRSA strain 1096 [6] = assay: Agar well diffusion method; type: cell-based, Staphylococcus aureus; conditions: 9 mm wells, MH agar, 37 °C 18 h, antibiotics 30 µg, mean ± SD, n = 3
Procedure: (§2) The optical density of the starter cultures was adjusted to 0.1 OD at 625 nm using 0.85% sterile NaCl solution before transferring 1 mL of the culture into 49 mL of fresh broth. The inoculum was then incubated at 30 °C with shaking at 150 rpm for 3 days. The CFS was obtained by centrifugation at 10,000× g at 4 °C for 15 min and filtered through a 0.2 µm sterile cellulose acetate syringe filter (Sigma-Aldrich, Warren, MI, USA). The antibacterial activity of the isolates was tested against S. aureus TISTR 517, E. coli TISTR 887, K. pneumoniae TISTR 1383, and P. aeruginosa TISTR 357, obtained from the Thailand Institute of Scientific and Technological Research (TISTR), Thailand, and three MRSA strains (strains 142, 1096, and 2468), provided by the medical technology laboratory of the School of Allied Health Sciences, Walailak University, Thailand. The pathogenic bacteria were incubated on MH agar at 37 °C for 18 h to obtain fresh cultures. Colonies of the test pathogens were scraped and suspended in 0.85% sterile NaCl solution. The test pathogen suspensions were adjusted to a turbidity equivalent to 0.1 OD at 625 nm before being spread onto MH agar plates. […] Wells with a diameter of 9 mm were made in the agar using a sterile cork borer. The collected CFS from the bacterial culture was transferred into the wells, and the plates were incubated at 37 °C for 18 h. Cefoxitin (30 µg) and vancomycin (30 µg) (Sigma-Aldrich Co., St. Louis, MO, USA) were used as positive controls. The experiment was repeated in triplicate, and the mean ± SD of the inhibition zone diameters was recorded.

MRSA strain 142 [7] = assay: Agar well diffusion method; type: cell-based, Staphylococcus aureus; conditions: 9 mm wells, MH agar, 37 °C 18 h, antibiotics 30 µg, mean ± SD, n = 3
Procedure: as §2

MRSA strain 2468 [8] = assay: Agar well diffusion method; type: cell-based, Staphylococcus aureus; conditions: 9 mm wells, MH agar, 37 °C 18 h, antibiotics 30 µg, mean ± SD, n = 3
Procedure: as §2

S. aureus TISTR 517 [9] = assay: Agar well diffusion method; type: cell-based, Staphylococcus aureus; conditions: 9 mm wells, MH agar, 37 °C 18 h, antibiotics 30 µg, mean ± SD, n = 3
Procedure: as §2

S. aureus TISTR 517 [10] = assay: Broth microdilution MIC/MBC (CLSI); type: cell-based, Staphylococcus aureus
Procedure: as §1

MRSA strains = assay: Broth microdilution MIC/MBC (CLSI), for the MRSA strains together; type: cell-based; conditions: Staphylococcus aureus
Procedure: as §1

P. aeruginosa TISTR 357 = assay: Agar well diffusion method; type: cell-based; conditions: 9 mm wells, MH agar, 37 °C 18 h, antibiotics 30 µg, mean ± SD, n = 3
Procedure: as §2

K. pneumoniae TISTR 1383 = assay: Agar well diffusion method; type: cell-based; conditions: 9 mm wells, MH agar, 37 °C 18 h, antibiotics 30 µg, mean ± SD, n = 3
Procedure: as §2

E. coli TISTR 887 = assay: Agar well diffusion method; type: cell-based; conditions: 9 mm wells, MH agar, 37 °C 18 h, antibiotics 30 µg, mean ± SD, n = 3
Procedure: as §2

MRSA strain 2468 [11] = assay: Scanning electron microscopy of treated cells; type: cell-based, Staphylococcus aureus; conditions: 1× MIC, 16 h / 18 h (figure legend), 30,000× magnification
Source text: (§3) SEM was used to examine morphological alterations in the bacterial cells. […] This appearance reflected their natural cellular structure.
(§4) Figure 5 SEM images captured at 30,000× magnification. […] The non-treatment condition served as a negative control.

S. aureus TISTR 517 [12] = assay: Scanning electron microscopy of treated cells; type: cell-based, Staphylococcus aureus; conditions: 1× MIC, 16 h / 18 h (figure legend), 30,000× magnification
Source text: as §3, §4

[13] = 100 µL of each dilution spread on MH agar, 37 °C 24 h, triplicate, read-out: MBC
[14] = broth microdilution, CAMHB, 37 °C 24 h, triplicate, read-out: MIC
[15] = 100 µL of each dilution spread on MH agar, 37 °C 24 h, triplicate
[16] = broth microdilution, CAMHB, 37 °C 24 h, triplicate
[17] = Staphylococcus aureus, TISTR517, 24 h

Row | Molecule | Antibacterial activity against MRSA Strain 2468 of surfactant alone, on the scale of FN33 AMP activity retention (%) (MRSA strain 2468 [2]; 1 h) | Antibacterial activity against MRSA Strain 2468 of surfactant alone, on the scale of FN33 AMP activity retention (%) (MRSA strain 2468 [2]; 6 h) | Antibacterial activity against MRSA Strain 2468 of surfactant alone, on the scale of FN33 AMP activity retention (%) (MRSA strain 2468 [2]; 12 h) | Zone of Inhibition (MRSA strain 1096 [6]) | Zone of Inhibition (MRSA strain 142 [7]) | Zone of Inhibition (MRSA strain 2468 [8]) | Zone of Inhibition (S. aureus TISTR 517 [9]) | MBC (S. aureus TISTR 517 [10]; [15]) | MIC (S. aureus TISTR 517 [10]; [16]) | Zone of Inhibition (P. aeruginosa TISTR 357) | Zone of Inhibition (K. pneumoniae TISTR 1383) | Zone of Inhibition (E. coli TISTR 887) | further results
1 | O=C1O[C@H]([C@@H](O)CO)C(O)=C1O [Ascorbic acid, ascorbic acid, reference compound] |  |  |  |  |  |  |  |  |  |  |  |  | IC50 (DPPH radical scavenging) [1]: 6.78 ± 1.58 µg/mL (≈ 38.5 µM)
2 | CCCCCCCCCCCCCCCC[N+](C)(C)C [CTAB, cetyltrimethylammonium bromide, reference compound] | 98.62 ± 0.69% | 98.89 ± 1.10% | 98.42 ± 0.72% |  |  |  |  |  |  |  |  |  | 
3 | CO[C@@]1(NC(=O)Cc2cccs2)C(=O)N2C(C(=O)O)=C(COC(N)=O)CS[C@@H]21 [Cefoxitin] |  |  |  | 0.00 ± 0.00 mm | 0.00 ± 0.00 mm | 0.00 ± 0.00 mm | 35.87 ± 0.46 mm | 2 µg/mL (≈ 4.68 µM) | 2 µg/mL (≈ 4.68 µM) | 0.00 ± 0.00 mm | 19.67 ± 0.88 mm | 35.12 ± 1.04 mm | MBC (MRSA strain 1096 [3]; [13]): > 64 µg/mL; MIC (MRSA strain 1096 [3]; [14]): > 64 µg/mL; MBC (MRSA strain 142 [4]; [13]): > 64 µg/mL; MIC (MRSA strain 142 [4]; [14]): > 64 µg/mL; MBC (MRSA strain 2468 [5]; [13]): > 64 µg/mL; MIC (MRSA strain 2468 [5]; [14]): > 64 µg/mL; MBC (S. aureus TISTR 517 [10]; Staphylococcus aureus, TISTR517, 100 µL of each dilution spread on MH agar, 37 °C 24 h, triplicate, read-out: MBC): 2 µg/mL (≈ 4.68 µM); MIC (S. aureus TISTR 517 [10]; Staphylococcus aureus, TISTR517, broth microdilution, CAMHB, 37 °C 24 h, triplicate, read-out: MIC): 2 µg/mL (≈ 4.68 µM); MBC (MRSA strains; text statement for the MRSA strains (142, 1096, 2468) together, read-out: MBC): > 64 µg/mL; MIC (MRSA strains; text statement for the MRSA strains (142, 1096, 2468) together, read-out: MIC): > 64 µg/mL
4 | CCCCCCCCCCCCOS(=O)(=O)[O-].[Na+] [SDS, sodium dodecyl sulfate, reference compound] | 110.10 ± 0.84 % | 109.30 ± 0.56 % | 108.93 ± 0.57 % |  |  |  |  |  |  |  |  |  | 
5 | CN[C@H](CC(C)C)C(=O)N[C@H]1C(=O)N[C@@H](CC(N)=O)C(=O)N[C@H]2C(=O)N[C@H]3C(=O)N[C@H](C(=O)N[C@H](C(=O)O)c4cc(O)cc(O)c4-c4cc3ccc4O)[C@H](O)c3ccc(c(Cl)c3)Oc3cc2cc(c3O[C@@H]2O[C@H](CO)[C@@H](O)[C@H](O)[C@H]2O[C@H]2C[C@](C)(N)[C@H](O)[C@H](C)O2)Oc2ccc(cc2Cl)[C@H]1O [Vancomycin] |  |  |  | 24.38 ± 0.51 mm | 24.13 ± 1.27 mm | 24.64 ± 1.02 mm | 23.37 ± 1.27 mm | 2 µg/mL (≈ 1.38 µM) | 2 µg/mL (≈ 1.38 µM) | 0.00 ± 0.00 mm | 0.00 ± 0.00 mm | 0.00 ± 0.00 mm | morphological changes under SEM (MRSA strain 2468 [11]): complete cell lysis; morphological changes under SEM (S. aureus TISTR 517 [12]): complete cell lysis; MBC (MRSA strain 1096 [3]; 24 h): 2 µg/mL (≈ 1.38 µM); MIC (MRSA strain 1096 [3]; 24 h): 2 µg/mL (≈ 1.38 µM); MBC (MRSA strain 142 [4]; 24 h): 2 µg/mL (≈ 1.38 µM); MIC (MRSA strain 142 [4]; 24 h): 2 µg/mL (≈ 1.38 µM); MBC (MRSA strain 2468 [5]; 24 h): 2 µg/mL (≈ 1.38 µM); MIC (MRSA strain 2468 [5]; 24 h): 2 µg/mL (≈ 1.38 µM); MBC (S. aureus TISTR 517 [10]; [17]): 2 µg/mL (≈ 1.38 µM); MIC (S. aureus TISTR 517 [10]; [17]): 2 µg/mL (≈ 1.38 µM); MBC (MRSA strains; MRSA): 2 µg/mL (≈ 1.38 µM); MIC (MRSA strains; MRSA): 2 µg/mL (≈ 1.38 µM)
6 | Triton X-100 [reference compound] | 0.00 ± 0.00 % | 0.00 ± 0.00 % | 0.00 ± 0.00 % |  |  |  |  |  |  |  |  |  | 
